Data taken from paper PMC6199309, “A therapeutic approach to pantothenate kinase associated neurodegeneration” (Nature Communications, 2018).

Experiments:
RET(V804M) = target: T1, RET(V804M) (Homo sapiens, UniProt P07949, V804M); test: KINOMEscan; assay type: binding; conditions: read-out: %Ctrl @ 10000nM
T1 construct: purchased DiscoverX KINOMEscan

BMPR1A = target: T2, BMPR1A (Homo sapiens, UniProt P36894); test: KINOMEscan; assay type: binding; conditions: read-out: %Ctrl @ 10000nM
T2 construct: purchased DiscoverX KINOMEscan

DYRK2 = target: T3, DYRK2 (Homo sapiens, UniProt Q92630); test: KINOMEscan; assay type: binding; conditions: read-out: %Ctrl @ 10000nM
T3 construct: purchased DiscoverX KINOMEscan

MAP3K2 = target: T4, MAP3K2 (Homo sapiens, UniProt Q9Y2U5); test: KINOMEscan; assay type: binding; conditions: read-out: %Ctrl @ 10000nM
T4 construct: purchased DiscoverX KINOMEscan

YSK4 = target: T5, YSK4 (Homo sapiens, UniProt Q56UN5); test: KINOMEscan; assay type: binding; conditions: read-out: %Ctrl @ 10000nM
T5 construct: purchased DiscoverX scanMAX; host or cells: E. coli BL21-derived host (T7 phage) or HEK-293

Protein binding = conditions: mouse
EPHB2 = target: T6, EPHB2 (Homo sapiens, UniProt P29323); test: KINOMEscan; assay type: binding; conditions: read-out: %Ctrl @ 10000nM
T6 construct: purchased DiscoverX KINOMEscan

MARK4 = target: T7, MARK4 (Homo sapiens, UniProt Q96L34); test: KINOMEscan; assay type: binding; conditions: read-out: %Ctrl @ 10000nM
T7 construct: purchased DiscoverX KINOMEscan

[1] = target: T8, JAK3(JH1domain-catalytic) (Homo sapiens, UniProt P52333); test: KINOMEscan; assay type: binding; conditions: read-out: %Ctrl @ 10000nM
T8 construct: JAK3(JH1domain-catalytic); purchased DiscoverX KINOMEscan
T8 sequence (P52333 814-1124 limits assumed): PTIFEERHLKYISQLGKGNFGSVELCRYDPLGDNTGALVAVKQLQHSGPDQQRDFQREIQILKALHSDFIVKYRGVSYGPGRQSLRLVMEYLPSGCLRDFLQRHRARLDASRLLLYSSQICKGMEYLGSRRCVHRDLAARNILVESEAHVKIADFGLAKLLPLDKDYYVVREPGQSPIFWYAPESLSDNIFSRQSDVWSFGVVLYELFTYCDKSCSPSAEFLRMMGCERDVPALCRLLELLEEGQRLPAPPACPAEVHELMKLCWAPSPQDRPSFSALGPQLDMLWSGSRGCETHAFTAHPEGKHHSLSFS

RIPK1 = target: T9, RIPK1 (Homo sapiens, UniProt Q13546); test: KINOMEscan; assay type: binding; conditions: read-out: %Ctrl @ 10000nM
T9 construct: purchased DiscoverX KINOMEscan

BRAF = target: T10, BRAF (Homo sapiens, UniProt P15056); test: KINOMEscan; assay type: binding; conditions: read-out: %Ctrl @ 10000nM
T10 construct: purchased DiscoverX KINOMEscan

PRKG1 = target: T11, PRKG1 (Homo sapiens, UniProt Q13976); test: KINOMEscan; assay type: binding; conditions: read-out: %Ctrl @ 10000nM
T11 construct: purchased DiscoverX KINOMEscan

CDKL3 = target: T12, CDKL3 (Homo sapiens, UniProt Q8IVW4); test: KINOMEscan; assay type: binding; conditions: read-out: %Ctrl @ 10000nM
T12 construct: purchased DiscoverX KINOMEscan

PIK3CA(H1047Y) = target: T13, PIK3CA(H1047Y) (Homo sapiens, UniProt P42336, H1047Y); test: KINOMEscan; assay type: binding; conditions: read-out: %Ctrl @ 10000nM
T13 construct: purchased DiscoverX KINOMEscan
T13 sequence (P42336 whole entry H1047Y): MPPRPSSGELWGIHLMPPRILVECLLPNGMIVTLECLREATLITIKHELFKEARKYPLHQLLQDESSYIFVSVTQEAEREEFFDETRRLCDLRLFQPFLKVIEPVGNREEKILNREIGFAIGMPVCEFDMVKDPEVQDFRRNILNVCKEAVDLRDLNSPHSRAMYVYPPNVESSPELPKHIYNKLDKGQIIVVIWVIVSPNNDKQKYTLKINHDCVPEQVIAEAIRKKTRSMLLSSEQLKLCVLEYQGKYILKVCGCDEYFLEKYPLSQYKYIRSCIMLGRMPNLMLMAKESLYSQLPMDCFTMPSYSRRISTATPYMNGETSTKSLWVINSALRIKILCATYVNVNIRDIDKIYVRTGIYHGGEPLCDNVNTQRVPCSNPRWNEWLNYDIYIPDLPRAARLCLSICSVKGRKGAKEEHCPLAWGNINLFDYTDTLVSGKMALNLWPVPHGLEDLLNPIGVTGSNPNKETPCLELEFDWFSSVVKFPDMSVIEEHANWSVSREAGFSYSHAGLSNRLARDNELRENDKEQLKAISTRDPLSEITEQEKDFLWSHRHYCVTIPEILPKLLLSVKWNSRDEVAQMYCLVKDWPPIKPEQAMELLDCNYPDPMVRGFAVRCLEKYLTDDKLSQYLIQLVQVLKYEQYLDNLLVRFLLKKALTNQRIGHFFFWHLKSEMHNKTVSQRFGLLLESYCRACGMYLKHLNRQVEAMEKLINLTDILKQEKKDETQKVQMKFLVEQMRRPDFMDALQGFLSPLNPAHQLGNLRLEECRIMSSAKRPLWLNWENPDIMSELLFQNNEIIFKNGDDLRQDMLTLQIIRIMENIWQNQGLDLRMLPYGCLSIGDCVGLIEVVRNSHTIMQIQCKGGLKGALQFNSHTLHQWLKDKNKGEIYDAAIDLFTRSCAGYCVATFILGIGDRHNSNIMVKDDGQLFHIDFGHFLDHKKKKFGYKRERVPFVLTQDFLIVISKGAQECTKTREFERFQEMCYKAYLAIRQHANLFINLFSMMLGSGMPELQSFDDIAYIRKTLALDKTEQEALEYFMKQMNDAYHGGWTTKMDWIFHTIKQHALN

CDK8 = target: T14, CDK8 (Homo sapiens, UniProt P49336); test: KINOMEscan; assay type: binding; conditions: read-out: %Ctrl @ 10000nM
T14 construct: purchased DiscoverX KINOMEscan
T14 sequence (P49336 whole entry): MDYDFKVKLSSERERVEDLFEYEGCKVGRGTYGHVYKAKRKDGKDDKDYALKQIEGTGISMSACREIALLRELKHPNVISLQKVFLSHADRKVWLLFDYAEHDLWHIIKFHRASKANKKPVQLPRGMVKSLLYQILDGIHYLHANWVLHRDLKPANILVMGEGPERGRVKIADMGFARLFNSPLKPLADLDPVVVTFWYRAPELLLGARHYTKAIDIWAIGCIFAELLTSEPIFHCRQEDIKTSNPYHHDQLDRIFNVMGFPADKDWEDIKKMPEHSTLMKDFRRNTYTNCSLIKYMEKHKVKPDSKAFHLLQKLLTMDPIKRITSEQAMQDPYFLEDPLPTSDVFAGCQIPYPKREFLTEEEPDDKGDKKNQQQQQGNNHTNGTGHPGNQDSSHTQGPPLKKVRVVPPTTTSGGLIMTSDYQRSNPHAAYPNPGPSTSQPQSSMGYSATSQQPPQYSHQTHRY

FER = target: T15, FER (Homo sapiens, UniProt P16591); test: KINOMEscan; assay type: binding; conditions: read-out: %Ctrl @ 10000nM
T15 construct: purchased DiscoverX KINOMEscan

MARK3 = target: T16, MARK3 (Homo sapiens, UniProt P27448); test: KINOMEscan; assay type: binding; conditions: read-out: %Ctrl @ 10000nM
T16 construct: purchased DiscoverX KINOMEscan

TAOK2 = target: T17, TAOK2 (Homo sapiens, UniProt Q9UL54); test: KINOMEscan; assay type: binding; conditions: read-out: %Ctrl @ 10000nM
T17 construct: purchased DiscoverX KINOMEscan

SRPK3 = target: T18, SRPK3 (Homo sapiens, UniProt Q9UPE1); test: KINOMEscan; assay type: binding; conditions: read-out: %Ctrl @ 10000nM
T18 construct: purchased DiscoverX KINOMEscan

FLT3(N841I) = target: T19, FLT3(N841I) (Homo sapiens, UniProt P36888, N841I); test: KINOMEscan; assay type: binding; conditions: read-out: %Ctrl @ 10000nM
T19 construct: purchased DiscoverX KINOMEscan

EPHA2 = target: T20, EPHA2 (Homo sapiens, UniProt P29317); test: KINOMEscan; assay type: binding; conditions: read-out: %Ctrl @ 10000nM
T20 construct: purchased DiscoverX KINOMEscan

[2] = target: T21, ABL1(H396P)-nonphosphorylated (Homo sapiens, UniProt P00519, H396P); test: KINOMEscan; assay type: binding; conditions: read-out: %Ctrl @ 10000nM
T21 construct: purchased DiscoverX KINOMEscan

[3] = target: T22, ABL1(T315I)-phosphorylated (Homo sapiens, UniProt P00519, T315I); test: KINOMEscan; assay type: binding; conditions: read-out: %Ctrl @ 10000nM
T22 construct: purchased DiscoverX KINOMEscan

ERK1 = target: T23, ERK1 (Homo sapiens, UniProt P27361); test: KINOMEscan; assay type: binding; conditions: read-out: %Ctrl @ 10000nM
T23 construct: purchased DiscoverX KINOMEscan

ERK2 = target: T24, ERK2 (Homo sapiens, UniProt P28482); test: KINOMEscan; assay type: binding; conditions: read-out: %Ctrl @ 10000nM
T24 construct: purchased DiscoverX KINOMEscan

PHKG2 = target: T25, PHKG2 (Homo sapiens, UniProt P15735); test: KINOMEscan; assay type: binding; conditions: read-out: %Ctrl @ 10000nM
T25 construct: purchased DiscoverX KINOMEscan

FGFR4 = target: T26, FGFR4 (Homo sapiens, UniProt P22455); test: KINOMEscan; assay type: binding; conditions: read-out: %Ctrl @ 10000nM
T26 construct: purchased DiscoverX KINOMEscan

KIT = target: T27, KIT (Homo sapiens, UniProt P10721); test: KINOMEscan; assay type: binding; conditions: read-out: %Ctrl @ 10000nM
T27 construct: purchased DiscoverX KINOMEscan
T27 sequence (P10721 26-976): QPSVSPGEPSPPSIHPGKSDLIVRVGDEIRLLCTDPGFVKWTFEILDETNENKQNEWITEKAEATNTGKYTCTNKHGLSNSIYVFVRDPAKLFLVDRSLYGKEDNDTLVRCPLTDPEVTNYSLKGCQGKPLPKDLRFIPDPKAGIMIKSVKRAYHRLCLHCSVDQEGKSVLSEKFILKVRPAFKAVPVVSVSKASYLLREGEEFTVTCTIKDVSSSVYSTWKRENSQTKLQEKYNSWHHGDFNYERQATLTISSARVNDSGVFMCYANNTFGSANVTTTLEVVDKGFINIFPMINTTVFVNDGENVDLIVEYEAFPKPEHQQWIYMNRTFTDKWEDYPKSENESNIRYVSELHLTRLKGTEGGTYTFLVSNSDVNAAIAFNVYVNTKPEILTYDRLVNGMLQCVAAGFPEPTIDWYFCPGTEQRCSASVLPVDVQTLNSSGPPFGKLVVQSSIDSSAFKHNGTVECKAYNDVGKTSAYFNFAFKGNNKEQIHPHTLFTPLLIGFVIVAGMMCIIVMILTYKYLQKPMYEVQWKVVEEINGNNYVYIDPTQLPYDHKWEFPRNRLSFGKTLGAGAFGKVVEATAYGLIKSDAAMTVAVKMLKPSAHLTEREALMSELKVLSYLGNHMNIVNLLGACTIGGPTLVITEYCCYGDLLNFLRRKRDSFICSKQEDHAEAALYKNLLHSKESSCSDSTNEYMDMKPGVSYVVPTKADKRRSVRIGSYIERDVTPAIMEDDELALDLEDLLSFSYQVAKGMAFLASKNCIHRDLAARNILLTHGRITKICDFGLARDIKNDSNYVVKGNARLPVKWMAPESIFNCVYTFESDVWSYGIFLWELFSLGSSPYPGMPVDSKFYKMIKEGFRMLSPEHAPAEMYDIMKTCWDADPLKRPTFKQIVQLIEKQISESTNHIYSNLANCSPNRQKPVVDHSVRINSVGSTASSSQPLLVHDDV

ACVR2A = target: T28, ACVR2A (Homo sapiens, UniProt P27037); test: KINOMEscan; assay type: binding; conditions: read-out: %Ctrl @ 10000nM
T28 construct: purchased DiscoverX KINOMEscan

GRK3 = target: T29, GRK3 (Homo sapiens, UniProt P35626); test: KINOMEscan; assay type: binding; conditions: read-out: %Ctrl @ 10000nM
T29 construct: DNA tag for qPCR (T7 phage fusion or DNA label); purchased DiscoverX KdELECT; host or cells: E. coli BL21-derived (T7 phage) or HEK-293

TGFBR1 = target: T30, TGFBR1 (Homo sapiens, UniProt P36897); test: KINOMEscan; assay type: binding; conditions: read-out: %Ctrl @ 10000nM
T30 construct: purchased DiscoverX KINOMEscan

CDK4-cyclinD1 = target: T31, CDK4-cyclinD1 (Homo sapiens, UniProt P11802); test: KINOMEscan; assay type: binding; conditions: read-out: %Ctrl @ 10000nM
T31 construct: purchased DiscoverX KINOMEscan

PIK3CA(E545K) = target: T32, PIK3CA(E545K) (Homo sapiens, UniProt P42336, E545K); test: KINOMEscan; assay type: binding; conditions: read-out: %Ctrl @ 10000nM
T32 construct: purchased DiscoverX KINOMEscan
T32 sequence (P42336 whole entry E545K): as the sequence (P42336 whole entry H1047Y) above, with E545K, Y1047H counted along it

MARK2 = target: T33, MARK2 (Homo sapiens, UniProt Q7KZI7); test: KINOMEscan; assay type: binding; conditions: read-out: %Ctrl @ 10000nM
T33 construct: purchased DiscoverX KINOMEscan

DRAK2 = target: T34, DRAK2 (Homo sapiens, UniProt O94768); test: KINOMEscan; assay type: binding; conditions: read-out: %Ctrl @ 10000nM
T34 construct: purchased DiscoverX KINOMEscan

VEGFR2 = target: T35, VEGFR2 (Homo sapiens, UniProt P35968); test: KINOMEscan; assay type: binding; conditions: read-out: %Ctrl @ 10000nM
T35 construct: DNA label for qPCR (T7 phage fusion or DNA tag); purchased DiscoverX scanMAX; host or cells: E. coli BL21-derived (T7 phage) or HEK-293
T35 sequence (P35968 20-1356): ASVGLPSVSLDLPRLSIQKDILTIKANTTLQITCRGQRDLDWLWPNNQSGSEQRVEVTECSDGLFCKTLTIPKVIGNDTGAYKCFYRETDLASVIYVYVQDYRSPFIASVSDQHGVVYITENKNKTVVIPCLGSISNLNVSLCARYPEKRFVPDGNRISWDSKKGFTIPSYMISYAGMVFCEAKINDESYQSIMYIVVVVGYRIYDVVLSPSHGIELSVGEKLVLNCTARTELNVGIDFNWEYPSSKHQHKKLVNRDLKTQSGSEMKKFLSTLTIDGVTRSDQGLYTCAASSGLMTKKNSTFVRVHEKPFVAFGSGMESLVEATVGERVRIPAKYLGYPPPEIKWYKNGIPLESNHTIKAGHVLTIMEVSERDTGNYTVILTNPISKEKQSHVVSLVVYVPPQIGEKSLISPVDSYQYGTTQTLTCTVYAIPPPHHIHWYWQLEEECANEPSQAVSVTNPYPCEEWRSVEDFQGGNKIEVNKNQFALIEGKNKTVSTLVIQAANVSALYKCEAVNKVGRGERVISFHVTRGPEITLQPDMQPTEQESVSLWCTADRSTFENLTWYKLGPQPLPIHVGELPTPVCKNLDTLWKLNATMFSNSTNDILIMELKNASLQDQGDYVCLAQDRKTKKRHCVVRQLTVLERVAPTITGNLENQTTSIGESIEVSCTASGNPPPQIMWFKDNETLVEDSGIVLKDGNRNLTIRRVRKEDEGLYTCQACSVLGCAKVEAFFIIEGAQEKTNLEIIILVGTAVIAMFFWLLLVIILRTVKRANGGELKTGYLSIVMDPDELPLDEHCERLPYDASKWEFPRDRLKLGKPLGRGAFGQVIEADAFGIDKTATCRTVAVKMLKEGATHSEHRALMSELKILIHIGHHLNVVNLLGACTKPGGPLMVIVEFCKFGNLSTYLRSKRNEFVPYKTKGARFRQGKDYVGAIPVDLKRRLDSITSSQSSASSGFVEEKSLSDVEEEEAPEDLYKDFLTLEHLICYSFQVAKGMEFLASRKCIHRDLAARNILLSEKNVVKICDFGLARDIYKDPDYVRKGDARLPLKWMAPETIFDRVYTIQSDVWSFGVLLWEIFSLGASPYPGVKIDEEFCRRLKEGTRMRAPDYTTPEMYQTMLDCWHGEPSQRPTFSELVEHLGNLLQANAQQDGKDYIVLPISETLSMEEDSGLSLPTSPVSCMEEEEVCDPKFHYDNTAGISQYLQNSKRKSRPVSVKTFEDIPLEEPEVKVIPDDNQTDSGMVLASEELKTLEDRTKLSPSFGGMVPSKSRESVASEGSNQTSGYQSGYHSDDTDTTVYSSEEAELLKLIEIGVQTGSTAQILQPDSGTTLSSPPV

CAMK4 = target: T36, CAMK4 (Homo sapiens, UniProt Q16566); test: KINOMEscan; assay type: binding; conditions: read-out: %Ctrl @ 10000nM
T36 construct: purchased DiscoverX KINOMEscan
T36 sequence (Q16566 whole entry): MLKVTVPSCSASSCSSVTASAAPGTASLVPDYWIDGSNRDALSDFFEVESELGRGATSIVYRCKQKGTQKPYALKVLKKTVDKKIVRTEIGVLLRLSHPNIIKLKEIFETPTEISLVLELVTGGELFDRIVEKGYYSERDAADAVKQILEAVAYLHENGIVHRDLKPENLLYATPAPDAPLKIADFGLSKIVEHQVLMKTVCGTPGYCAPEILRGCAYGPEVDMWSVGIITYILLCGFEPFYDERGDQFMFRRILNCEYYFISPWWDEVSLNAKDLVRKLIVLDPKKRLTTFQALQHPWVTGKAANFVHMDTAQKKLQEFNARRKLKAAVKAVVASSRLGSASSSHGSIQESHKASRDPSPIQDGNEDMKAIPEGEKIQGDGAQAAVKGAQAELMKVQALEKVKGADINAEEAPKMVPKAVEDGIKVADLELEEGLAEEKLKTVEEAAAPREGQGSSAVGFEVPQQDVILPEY

KIT(L576P) = target: T37, KIT(L576P) (Homo sapiens, UniProt P10721, L576P); test: KINOMEscan; assay type: binding; conditions: read-out: %Ctrl @ 10000nM
T37 construct: purchased DiscoverX KINOMEscan
T37 sequence (P10721 26-976 L576P): as the sequence (P10721 26-976) above, with L551P counted along it

VPS34 = target: T38, VPS34 (Homo sapiens, UniProt Q8NEB9); test: KINOMEscan; assay type: binding; conditions: read-out: %Ctrl @ 10000nM
T38 construct: DNA label for qPCR (T7 phage fusion or DNA tag); purchased DiscoverX scanMAX; host or cells: E. coli BL21-derived (T7 phage) or HEK-293

MEK3 = target: T39, MEK3 (Homo sapiens, UniProt P46734); test: KINOMEscan; assay type: binding; conditions: read-out: %Ctrl @ 10000nM
T39 construct: purchased DiscoverX KINOMEscan
T39 sequence (P46734 whole entry): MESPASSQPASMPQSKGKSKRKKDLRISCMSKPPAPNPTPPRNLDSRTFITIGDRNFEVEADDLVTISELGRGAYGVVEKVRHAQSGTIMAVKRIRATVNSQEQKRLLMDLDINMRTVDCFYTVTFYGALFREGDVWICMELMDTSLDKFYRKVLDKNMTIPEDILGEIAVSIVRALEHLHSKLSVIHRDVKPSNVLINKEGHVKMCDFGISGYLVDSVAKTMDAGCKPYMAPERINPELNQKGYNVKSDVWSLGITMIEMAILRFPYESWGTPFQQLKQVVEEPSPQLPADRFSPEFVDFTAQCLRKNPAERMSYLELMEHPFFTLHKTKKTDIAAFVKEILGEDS

## CC(C)c1ccc(CC(=O)N2CCN(c3ccc(C#N)nn3)CC2)cc1 [PZ-2891, 6-(4-(2-(4-isopropylphenyl)acetyl)piperazin-1-yl)pyridazine-3-carbonitrile]
RET(V804M)
  remaining binding at 10 µM: 95%
BMPR1A
  remaining binding at 10 µM: 100%
DYRK2
  remaining binding at 10 µM: 97%
MAP3K2
  remaining binding at 10 µM: 96%
YSK4
  remaining binding at 10 µM: 89%
Protein binding
  fraction unbound: 0.08
EPHB2
  remaining binding at 10 µM: 82%
MARK4
  remaining binding at 10 µM: 81%
[1]
  remaining binding at 10 µM: 94%
RIPK1
  remaining binding at 10 µM: 98%
BRAF
  remaining binding at 10 µM: 100%
PRKG1
  remaining binding at 10 µM: 99%
CDKL3
  remaining binding at 10 µM: 86%
PIK3CA(H1047Y)
  remaining binding at 10 µM: 46%
CDK8
  remaining binding at 10 µM: 83%
FER
  remaining binding at 10 µM: 88%
MARK3
  remaining binding at 10 µM: 84%
TAOK2
  remaining binding at 10 µM: 99%
SRPK3
  remaining binding at 10 µM: 67%
FLT3(N841I)
  remaining binding at 10 µM: 86%
EPHA2
  remaining binding at 10 µM: 100%
[2]
  remaining binding at 10 µM: 74%
[3]
  remaining binding at 10 µM: 97%
ERK1
  remaining binding at 10 µM: 91%
ERK2
  remaining binding at 10 µM: 86%
PHKG2
  remaining binding at 10 µM: 100%
FGFR4
  remaining binding at 10 µM: 73%
KIT
  remaining binding at 10 µM: 75%
ACVR2A
  remaining binding at 10 µM: 100%
GRK3
  remaining binding at 10 µM: 35%
TGFBR1
  remaining binding at 10 µM: 99%
CDK4-cyclinD1
  remaining binding at 10 µM: 100%
PIK3CA(E545K)
  remaining binding at 10 µM: 65%
MARK2
  remaining binding at 10 µM: 70%
DRAK2
  remaining binding at 10 µM: 95%
VEGFR2
  remaining binding at 10 µM: 75%
CAMK4
  remaining binding at 10 µM: 89%
KIT(L576P)
  remaining binding at 10 µM: 88%
VPS34
  remaining binding at 10 µM: 80%
MEK3
  remaining binding at 10 µM: 61%
